Results: patent US20240325398A1, “COMBINATION THERAPIES” (Infinity Pharmaceuticals, Inc., priority 2014, published 2024)

What was measured:
Farage = test: Combination study, ATPLite 72 h, dose matrix (Synergy Score, CI50); conditions: combination with Compound 1; Farage; 72 h
KARPAS-299 = test: as above; conditions: combination with Compound 1
Mino = test: as above; conditions: combination with Compound 1
RPMI-8226 = test: as above; conditions: combination with Compound 1
RL = test: as above; conditions: combination with Compound 1, 72 h
Protocol: (§1) Cells are thawed from a liquid nitrogen preserved state. Once cells have been expanded and divide at their expected doubling times, screening begins. Cells are seeded in growth media in either black 1536-well or 384-well tissue culture treated plates. Cells are then equilibrated in assay plates via centrifugation and placed in incubators attached to the Dosing Modules at 37° C. for 24 hours before treatment. […] These Tzero (To) plates are read using ultra-sensitive luminescence on Envision plate readers (Perkin Elmer). Treated assay plates are incubated with compound for 72 hours. After 72 hours, plates are developed for endpoint analysis using ATPLite. All data points are collected via automated processes, quality controlled and analyzed using Zalicus software.
(§2) where T is treated cell count and V is untreated (vehicle) cell count (at 72 hours). I ranges from 0% (when T=V) to 100% (when T=0). […] The measure of effect in the experiment can be the inhibition of cellular response relative to the untreated level (vehicle alone). […] The inhibition ranges from 0% at the untreated level to 100% when T=0. Inhibition levels are negative for agents that actually increase levels. Other effect measures, such as an activity ratio r=T/V may be more appropriate for some assays. When activity ratios (e.g, fold increase over stimulated control) are being used, the effect can be measured using an induction 1=ln(T/V). With this definition, all effect expressions are the same as for inhibition.
(§3) Growth Inhibition (GI) is used as a measure of cell viability. […] A GI reading of 100% represents complete growth inhibition—T72 compound-treated and T0 vehicle signals are matched. […] A GI reading of 200% represents complete death of all cells in the culture well. Compounds reaching an activity plateau of GI 200% are considered cytotoxic. GI is calculated by applying the following test and equation:
(§4) Combination analysis data were collected in a 6×6 dose matrix. Synergy is calculated by comparing a combination's response to those of its single compound, against the drug-with-itself dose-additive reference model. Deviations from dose additivity may be assessed visually on an isobologram or numerically with a Combination Index (CI). […] Additive effect is CI=1.0. […] Antagonistic effect is CI>1.0.
(§5) To measure combination effects in excess of Loewe additivity, a scalar measure to characterize the strength of synergistic interaction termed the Synergy Score is devised. The Synergy Score is calculated as:
(§6) The fractional inhibition for each component agent and combination point in the matrix is calculated relative to the median of all vehicle-treated control wells. The Synergy Score equation integrates the experimentally-observed activity volume at each point in the matrix in excess of a model surface numerically derived from the activity of the component agents using the Loewe model for additivity. Additional terms in the Synergy Score equation (above) are used to normalize for various dilution factors used for individual agents and to allow for comparison of synergy scores across an entire experiment. The inclusion of positive inhibition gating or an Idata multiplier removes noise near the zero effect level, and biases results for synergistic interactions at that occur at high activity levels.
(§7) Loewe Volume (Loewe Vol) is used to assess the overall magnitude of the combination interaction in excess of the Loewe additivity model. Loewe Volume is particularly useful when distinguishing synergistic increases in a phenotypic activity (positive Loewe Volume) versus synergistic antagonisms (negative Loewe Volume). […] This model defines additivity as a non-synergistic combination interaction where the combination dose matrix surface should be indistinguishable from either drug crossed with itself.

TMD8 = test: as above; conditions: combination with Compound 1; TMD8; 72 h
U-2932 = test: as above; conditions: combination with Compound 1, 72 h
Protocol: as §1, §2, §3, §4, §5, §6
(§8) Loewe Volume (Loewe Vol) is used to assess the overall magnitude of the combination interaction in excess of the Loewe additivity model. Loewe Volume is particularly useful when distinguishing synergistic increases in a phenotypic activity (positive Loewe Volume) versus synergistic antagonisms (negative Loewe Volume). […] This model defines additivity as a non-synergistic combination interaction where the combination dose matrix surface should be indistinguishable from either drug crossed with itself. The calculation for Loewe additivity is:

OCI-Ly3 = test: as above; conditions: combination with Compound 1; OCI-Ly3; 72 h
Protocol: as §1, §2, §3, §4, §5, §6, §8

SU-DHL-10-epst = test: as above; conditions: combination with Compound 1, 72 h
HH = test: as above; assay type: cell-based; conditions: combination with Compound 1
Protocol: The method is described as follows.
Additive effect is CI=1.0. […] Antagonistic effect is CI>1.0.
The Synergy Score is calculated as: […]

[1] = as above; conditions: combination with Compound 1; OPM-2
OMP-2 = test: as above; conditions: combination with Compound 1; OPM-2
NCI-H929 = test: as above; conditions: combination with Compound 1
Protocol: as §1, §2, §3, §4, §5, §6, §7

WSU-NHL = test: as above; conditions: combination with Compound 1, 72 h
SU-DHL-4-epst = test: as above; conditions: combination with Compound 1, 72 h
OCI-Ly7 = test: as above; conditions: combination with Compound 1, 72 h
Protocol: as §1
The measure of effect in the experiment can be the inhibition of cellular response relative to the untreated level (vehicle alone). […] The inhibition ranges from 0% at the untreated level to 100% when T=0. Inhibition levels are negative for agents that actually increase levels.
as §3, §4, §5, §6, §8

GRANTA-519 = test: as above; conditions: combination with Compound 1
HBL-1 = test: as above; conditions: combination with Compound 1, 72 h
Protocol: as §1, §2, §3, §4, §5, §6, §8

DOHH-2 = test: as above; conditions: combination with Compound 1, 72 h
Jeko-1 = test: as above; conditions: combination with Compound 1
KARPAS-422 = test: as above; conditions: combination with Compound 1, 72 h
Protocol: as §1, §2, §3, §4, §5, §6, §7

CN1CCc2c(c3ccccc3n2Cc2ccc(C(=O)NO)cc2)C1.Cl [Tubastatin A hydrochloride]
A3 (A3=>3): Synergy Score growth inhibition (Farage) | Synergy Score growth inhibition (TMD8) | Synergy Score growth inhibition (SU-DHL-10-epst) | Synergy Score growth inhibition (HH) | Synergy Score growth inhibition (NCI-H929) | Synergy Score growth inhibition (WSU-NHL) | Synergy Score growth inhibition (SU-DHL-4-epst) | Synergy Score growth inhibition (OCI-Ly7) | Synergy Score growth inhibition (DOHH-2)
A2 (A2=1 to <3): Synergy Score inhibition (Farage) | Synergy Score growth inhibition (Mino) | Synergy Score growth inhibition (RPMI-8226) | Synergy Score growth inhibition (RL) | Synergy Score inhibition (RL) | Synergy Score inhibition (TMD8) | Synergy Score growth inhibition (OCI-Ly3) | Synergy Score inhibition (SU-DHL-10-epst) | Synergy Score inhibition (HH) | Synergy Score inhibition (NCI-H929) | Synergy Score inhibition (WSU-NHL) | Synergy Score inhibition (SU-DHL-4-epst) | Synergy Score inhibition (OCI-Ly7) | Synergy Score growth inhibition (GRANTA-519) | Synergy Score growth inhibition (HBL-1) | Synergy Score inhibition (DOHH-2)
W (W=≥1): CI50 growth inhibition (RL) | CI50 inhibition (RL) | CI50 inhibition (OCI-Ly3) | CI50 growth inhibition [1] | CI50 inhibition (GRANTA-519) | CI50 inhibition (HBL-1) | CI50 growth inhibition (Jeko-1) | CI50 inhibition (Jeko-1)
A1 (A1=0.0001 to <1): Synergy Score growth inhibition (KARPAS-299) | Synergy Score inhibition (KARPAS-299) | Synergy Score inhibition (Mino) | Synergy Score inhibition (RPMI-8226) | Synergy Score growth inhibition (U-2932) | Synergy Score inhibition (U-2932) | Synergy Score inhibition (OCI-Ly3) | Synergy Score growth inhibition (OMP-2) | Synergy Score inhibition (OMP-2) | Synergy Score inhibition (GRANTA-519) | Synergy Score inhibition (HBL-1) | Synergy Score growth inhibition (Jeko-1) | Synergy Score inhibition (Jeko-1) | Synergy Score growth inhibition (KARPAS-422) | Synergy Score inhibition (KARPAS-422)
T (T=0.5 to <0.7): CI50 inhibition (Farage) | CI50 growth inhibition (SU-DHL-10-epst) | CI50 inhibition (SU-DHL-10-epst) | CI50 inhibition (HH) | CI50 inhibition (NCI-H929) | CI50 growth inhibition (WSU-NHL) | CI50 inhibition (WSU-NHL) | CI50 growth inhibition (SU-DHL-4-epst) | CI50 growth inhibition (DOHH-2) | CI50 inhibition (DOHH-2)
S (S=0.01 to <0.5): CI50 growth inhibition (Farage) | CI50 growth inhibition (HH) | CI50 inhibition (SU-DHL-4-epst) | CI50 growth inhibition (OCI-Ly7) | CI50 growth inhibition (GRANTA-519)
U (U=0.7 to <1): CI50 growth inhibition (Mino) | CI50 inhibition (Mino) | CI50 growth inhibition (RPMI-8226) | CI50 inhibition (RPMI-8226) | CI50 growth inhibition (TMD8) | CI50 inhibition (TMD8) | CI50 growth inhibition (U-2932) | CI50 growth inhibition (OCI-Ly3) | CI50 growth inhibition (NCI-H929) | CI50 inhibition (OCI-Ly7) | CI50 growth inhibition (HBL-1)
